How the values were obtained:
[1] = system: CCl4 liver fibrosis animal; experiment: CCl4 (carbon tetrachloride)-induced liver fibrosis animal model; type: in vivo, Actin-DsRed mice
Experimental: Hepatocytes appear red in Actin-DsRed mice (Stock no. #006051, Jackson Laboratory (Bar Harbor, USA)). In order to induce liver fibrosis in this mouse, CCl4 (carbon tetrachloride) was dissolved in corn oil and injected intraperitoneally twice a week at a concentration of 20% for a total of 6 weeks. Three weeks after start of CCl4 administration, vehicle and BC-KI-00053 (100 mg/kg) were administered orally, daily for three weeks. For vehicle, corn oil:polyethylene glycol 400:Tween 80:methyl cellulose (1%)=20:30:1:49 was used.
The degree of fibrosis on the surface and inside (area with a depth of 30-50 μm) of liver was detected by the Second Harmonic Generation (SHG) technique of intravial imaging (Excitation: 780 nm, Detection: 390 nm).

[2] = system: FHH rats with superimposed hypertension; experiment: FHH rat with superimposed hypertension (uninephrectomy, DOCA, 1% NaCl); type: in vivo
Experimental: Experiments were performed using male FHH rats of 9-12 weeks of age. These animals were provided by the University of Mississippi Medical Center and approved by the American Association for Accreditation of Laboratory Animal Care (AAALAC). All protocols were approved by the Institutional Animal Care and Use Committee of the University of Mississippi Medical Center. Rats were fed ad libitum, and provided with a purified AIN-76 rodent feed containing 0.4% NaCl (Dyets, Bethlehem, Pa.) after weaning. Fawn-hooded hypertensive (FHH) rat is a genetic model of spontaneous hypertension associated with glomerular hyperfiltration and proteinuria. In order to promote glomerular damage in this rat, DOCA strips were implanted after single (one) kidney extraction.
Specifically, FHH rats were anesthetized with isoflurane and telemetry transmitters (model TA11PAC40, Data Sciences International, St. Paul, Minn.) were implanted as described in ‘Williams, J. M. et al. […] Regul Integr Comp Physiol (2012)’. Briefly, surgery was performed under 2% to 3% isoflurane-O2, and the catheter of the device was inserted into the left femoral artery and guided upstream to the aorta. Body part of the telemetry unit was placed in the lateral cavity of the left leg and sutured with muscle tissue. Skin was then closed. To prevent infection, animals were given Baytril (10 mg/kg) and Rimadyl (5 mg/kg), a long-acting analgesic to control surgical pain. After surgery, rats were housed in individual cages in a quiet air-conditioned room environment with a 12:12 hour light-dark cycle and it took a week to fully recover from surgery. Thereafter, the basic mean arterial blood pressure (MAP) and proteinuria were measured for 4 hours (10 am to […]) before the rats were housed in the metabolic cage. Proteinuria was measured using the Bradford method and BSA (Bio-Rad Laboratories, Hercules, Calif.) as a standard.
One week after the transmitter insertion, rats were uninephrectomized as described in Wang, X. et al. Am J Physiol Renal Physiol (2016). Briefly, rats were anesthetized with 2-3% isoflurane-O2 and the right flank was dissected in aseptic condition. The right kidney was gently lifted and threaded tightly around the renal vessels and ureters. The right kidney was extracted by cutting the distal ends of the renal vessels and ureters. The incision was closed with a continuous subcutaneous stitch, after which the skin was further closed. After the rat's right kidney was removed, DOCA pellets (200 mg, Innovative Research of America) was subcutaneously implanted in the neck.
After single kidney extraction and DOCA transplant surgery, rats had recovery time for 3 days. Rats were provided with water containing 1% NaCl in place of distilled water, and randomly divided into two groups: Group 1 (n=15) was administered with BC-KI-00053 (25 mg/kg daily) by gastrointestinal gavage; Group 2 (n=15) was administered with the same volume (2.5 ml/kg daily) of vehicle (corn oil, polyethylene glycol 400, Tween 80 and methylcellulose) by gastrointestinal gavage. Blood pressure and proteinuria were measured weekly for 3 weeks in the experimental group. At the end of the experiment, rats were anesthetized with isoflurane and blood samples were taken to measure creatinine levels. Rats were then flushed with 50 ml of 0.9% NaCl through aorta and perfused with 20 ml of 4% paraformaldehyde. Kidneys and hearts were collected for histological evaluation.
Paraffin sections prepared with a thickness of […] were stained with Masson's trichrome to measure the degree of glomerular damage and renal interstitial fibrosis. Images were obtained using a Nikon Eclipse 55i microscope and NIS-Elements D 3.0 software equipped with Nikon DS-Fil color camera (Nikon, Melville, N.Y.). The degree of glomerular damage was assessed by the blinded experimenter, rating from 0 to 4+ for 30-40 […]. […]

[3] = CCl4 6 weeks, BC-KI-00053 100 mg/kg oral daily for 3 weeks
[4] = normal animal (corn oil) + BC-KI-00053 100 mg/kg oral daily 3 weeks
[5] = 25 mg/kg daily 3 weeks, Masson's trichrome
[6] = 25 mg/kg daily, after two weeks of treatment
[7] = basal, before treatment, mean±SEM

With `COc1ccc(CCN(Cc2ccc(C(=O)O)cc2)c2nc3cccc(F)c3s2)cc1` [BC-KI-00053, 4-({(7-fluorobenzo[d]thiazol-2-yl)[2-(4-methoxyphenyl)ethyl]amino}methyl)benzoic acid] the “fibrosis in the surface and inside the liver (SHG imaging)” value [1, 3] was “greatly reduced”, the hepatocyte necrosis [1, 3] was “noticeably reduced” and the “other symptoms in the liver” value [1, 4] was “no other symptoms”. The weight loss [1, 4] was “no weight loss”, the in vivo tolerability ([1]; normal animal + BC-KI-00053 100 mg/kg) was “innocuous” and the “renal tissue infiltration of monocytes/macrophages (CD68 IHC)” value ([2]; 25 mg/kg daily 3 weeks) was “significantly reduced”. For the same molecule, the cortical fibrosis [2, 5] was 5.79±0.48%, the renal medulla fibrosis [2, 5] was 7.40±0.56% and the cardiac fibrosis ([2]; 25 mg/kg daily 3 weeks, Sirius red, right ventricular insertion point) was 9.14±2.18%. The “mean glomerular injury score” value ([2]; 25 mg/kg daily 3 weeks, score 0 to 4+) was 1.49±0.05, the “body weight reduction during the study period” value ([2]; 25 mg/kg daily gavage, 3 weeks) was “approximately 10%” and the MAP ([2]; 25 mg/kg daily, after one week of treatment) was 174.4±3.83 mmHg. For the same molecule, the MAP [2, 6] was 168.8±3.74 mmHg, the proteinuria [2, 6] was 285.5 ± 47.48 mg/day and the plasma creatinine concentration ([2]; 25 mg/kg daily, end of experiment) was 0.48 ± 0.02 mg/dL. For the same molecule, the proteinuria ([2]; 25 mg/kg daily, study completed (3 weeks)) was 433.1 ± 60.59 mg/day, the MAP ([2]; 25 mg/kg daily, three weeks) was 176.9±5.83 mmHg and the MAP [2, 7] was 120.1±0.62 mmHg. It also gave a basal body weight [2, 7] of 304.7 ± 5.39 g and a proteinuria ([2]; baseline, before treatment) of 51.0 ± 4.9 mg/day.
